What was measured:
PDE5A1 = target: T1, PDE5A1 (Homo sapiens, UniProt O76074); experiment: Inhibition of type 5 phosphodiesterase (PDE5) activity, modified SPA test with human platelet lysate; format: biochemical; conditions: 0.5 μM cGMP, read-out: PDE5A1 inhibitory values [measured as −log IC50 (mol/l)] (converted)
T1 construct: from tissue; host or cells: human platelets from fresh donor blood (10,000 x g supernatant of sonicated lysate)
Outline: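 Enzyme source is lysate from human platelets (10,000 g supernatant). Compound preincubated 5 min at 37° C in Tris pH 7.4 containing 1 μM motapizone and 10 nM of a PDE2 inhibitor. Reaction started with 0.5 μM cGMP ([3H] tracer) and run 15 min; SPA read-out, IC50 by non-linear regression.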

PDE4B1 = target: T2, PDE4B1 (Homo sapiens, UniProt Q07343); experiment: Inhibition of type 4 phosphodiesterase (PDE4) activity, modified SPA test with recombinant PDE4B1 expressed in SF21 insect cells; format: biochemical; conditions: recombinant PDE4B1, 0.5 μM cAMP, read-out: PDE4B1 inhibitory values [measured as −log IC50 (mol/l)] (converted)
T2 construct: made in house; host or cells: SF21 insect cells (baculovirus; pCRBac vector), 1000 x g supernatant of homogenate
Outline: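 Modified [3H]cAMP SPA using 1000×g supernatant of SF21 cells expressing recombinant human PDE4B1, in 20 mM Tris pH 7.4, 0.1 mg/ml BSA, 5 mM Mg2+, 0.5 μM cAMP. After 5 min preincubation at 37 °C, 15 min reaction, stopped with SPA beads plus IBMX; IC50 by non-linear regression.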

T2 sequence (Q07343 whole entry): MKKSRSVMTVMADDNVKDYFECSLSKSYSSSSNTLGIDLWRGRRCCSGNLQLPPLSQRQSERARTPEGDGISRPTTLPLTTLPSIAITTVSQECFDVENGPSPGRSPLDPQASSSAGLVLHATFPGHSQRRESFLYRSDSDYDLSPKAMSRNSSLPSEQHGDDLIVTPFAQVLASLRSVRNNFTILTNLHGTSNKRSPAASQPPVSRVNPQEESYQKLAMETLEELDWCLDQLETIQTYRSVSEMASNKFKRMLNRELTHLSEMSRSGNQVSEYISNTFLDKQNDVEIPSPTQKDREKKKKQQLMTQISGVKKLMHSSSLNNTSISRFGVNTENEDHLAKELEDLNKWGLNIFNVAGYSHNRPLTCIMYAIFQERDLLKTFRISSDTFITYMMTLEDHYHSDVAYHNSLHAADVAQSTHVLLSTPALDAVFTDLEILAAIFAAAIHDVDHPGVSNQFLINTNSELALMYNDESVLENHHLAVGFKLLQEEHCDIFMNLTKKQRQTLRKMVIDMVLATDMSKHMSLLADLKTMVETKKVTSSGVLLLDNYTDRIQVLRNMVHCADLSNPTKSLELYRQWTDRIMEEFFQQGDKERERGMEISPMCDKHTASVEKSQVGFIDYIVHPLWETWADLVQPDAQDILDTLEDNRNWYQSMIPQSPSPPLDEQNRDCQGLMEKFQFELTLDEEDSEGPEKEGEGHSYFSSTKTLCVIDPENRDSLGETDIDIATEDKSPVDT

IC50 (PDE5A1) [µM]	IC50 (PDE4B1) [µM]	SMILES
< 0.001	< 0.1	COCC(=O)N[C@@H]1CC[C@@H](NC(=O)c2c(C)[nH]c3c(-c4cc(C(F)F)ccc4OCC4CC4)ncnc23)[C@H](F)C1 (relative stereo) [Example P161, 4-[2-(Cyclopropylmethoxy)-5-(difluoromethyl)phenyl]-N-{(1R*,2R*,4R*)-2-fluoro-4-[(methoxyacetyl)amino]cyclohexyl}-6-methyl-5H-pyrrolo[3,2-d]pyrimidine-7-carboxamide]
< 0.001	0.1 to 1	COCC(=O)N[C@H]1CC[C@H](NC(=O)c2c(C)[nH]c3c(-c4cc(OC)ccc4OCC4CC4)ncnc23)CC1 [Example E71, 4-[2-(Cyclopropylmethoxy)-5-methoxyphenyl]-N-{trans-4-[(methoxyacetyl)amino]cyclohexyl}-6-methyl-5H-pyrrolo[3,2-d]pyrimidine-7-carboxamide]
< 0.001	< 0.1	COCC(=O)N[C@H]1CC[C@H](NC(=O)c2c(C)[nH]c3c(-c4cc(C(F)F)ccc4OCC4CC4)ncnc23)C1 [Example P91, 4-[2-(Cyclopropylmethoxy)-5-(difluoromethyl)phenyl]-N-{(1S,3S)-3-[(methoxyacetyl)amino]cyclopentyl}-6-methyl-5H-pyrrolo[3,2-d]pyrimidine-7-carboxamide]
< 0.001	0.1 to 1	CCC(=O)N[C@H]1CC[C@@H](NC(=O)c2c(C)[nH]c3c(-c4cc(OC)ccc4OCC4CC4)ncnc23)CC1 [Example E73, 4-[2-(Cyclopropylmethoxy)-5-methoxyphenyl]-6-methyl-N-[cis-4-(propionylamino)cyclohexyl]-5H-pyrrolo[3,2-d]pyrimidine-7-carboxamide]
< 0.001	0.1 to 1	COc1ccc(OCC2CC2)c(-c2ncnc3c(C(=O)N[C@H]4CC[C@H](NC(=O)CO)CC4)c(C)[nH]c23)c1 [Example F43, 4-[2-(Cyclopropylmethoxy)-5-methoxyphenyl]-N-[trans-4-(glycoloylamino)cyclohexyl]-6-methyl-5H-pyrrolo[3,2-d]pyrimidine-7-carboxamide]
< 0.001	< 0.1	CCC(=O)N[C@H]1CC[C@H](NC(=O)c2c(C)[nH]c3c(-c4cc(C(F)F)ccc4OCC4CC4)ncnc23)C[C@@H]1F (relative stereo) [Example P210, 4-[2-(Cyclopropylmethoxy)-5-(difluoromethyl)phenyl]-N-[(1S*,3S*,4S*)-3-fluoro-4-(propanoylamino)cyclohexyl]-6-methyl-5H-pyrrolo[3,2-d]pyrimidine-7-carboxamide]
< 0.001	< 0.1	CCc1ccc(OCC2CC2)c(-c2ncnc3c(C(=O)N[C@H]4CC[C@H](NC(C)=O)CC4)c(C)[nH]c23)c1 [Example E148, N-[trans-4-(Acetylamino)cyclohexyl]-4-[2-(cyclopropylmethoxy)-5-ethylphenyl]-6-methyl-5H-pyrrolo[3,2-d]pyrimidine-7-carboxamide]
0.001 to 0.01	0.1 to 1	Cc1[nH]c2c(-c3cc(F)ccc3OCC3CC3)ncnc2c1C(=O)N[C@H]1CC[C@@H](NC(=O)[C@H](C)O)CC1 [Example F27, 4-[2-(Cyclopropylmethoxy)-5-fluorophenyl]-N-(cis-4-{[(2S)-2-hydroxypropanoyl]amino}cyclohexyl)-6-methyl-5H-pyrrolo[3,2-d]pyrimidine-7-carboxamide]
< 0.001	0.1 to 1	CCC(=O)N1CCC(NC(=O)c2c(C)[nH]c3c(-c4cc(C)ccc4OCC4CC4)nc(C)nc23)CC1 [Example E170, 4-[2-(Cyclopropylmethoxy)-5-methylphenyl]-2,6-dimethyl-N-(1-propanoylpiperidin-4-yl)-5H-pyrrolo[3,2-d]pyrimidine-7-carboxamide]
< 0.001	< 0.1	Cc1ccc(OCC2CC2)c(-c2ncnc3c(C(=O)N[C@H]4CCC[C@@H]4O)c(C)[nH]c23)c1 [Example E176, 4-[2-(Cyclopropylmethoxy)-5-methylphenyl]-N-[(1S,2S)-2-hydroxycyclopentyl]-6-methyl-5H-pyrrolo[3,2-d]pyrimidine-7-carboxamide]
< 0.001	< 0.1	CCC(=O)N[C@H]1CC[C@@H](NC(=O)c2c(C)[nH]c3c(-c4cc(C(F)(F)F)ccc4OCC4CC4)ncnc23)CC1 [Example E97, 4-[2-(Cyclopropylmethoxy)-5-(trifluoromethyl)phenyl]-6-methyl-N-[cis-4-(propanoylamino)cyclohexyl]-5H-pyrrolo[3,2-d]pyrimidine-7-carboxamide]
< 0.001	< 0.1	COCC(=O)N[C@H]1CC[C@@H](NC(=O)c2c(C)[nH]c3c(-c4cc(C(F)(F)F)ccc4OCC4CC4)ncnc23)CC1 [Example E98, 4-[2-(Cyclopropylmethoxy)-5-(trifluoromethyl)phenyl]-N-{cis-4-[(methoxyacetyl)amino]cyclohexyl}-6-methyl-5H-pyrrolo[3,2-d]pyrimidine-7-carboxamide]
< 0.001	0.1 to 1	CCc1ccc(OCC2CC2)c(-c2ncnc3c(C(=O)N[C@H]4CC[C@@H](NC(C)=O)CC4)c(C)[nH]c23)c1 [Example E151, N-[cis-4-(Acetylamino)cyclohexyl]-4-[2-(cyclopropylmethoxy)-5-ethylphenyl]-6-methyl-5H-pyrrolo[3,2-d]pyrimidine-7-carboxamide]
< 0.001	< 0.1	Cc1ccc(OCC2CC2)c(-c2ncnc3c(C(=O)N[C@H]4CC[C@H](NC(=O)[C@H](C)O)CC4)c(C)[nH]c23)c1 [Example F54, 4-[2-(Cyclopropylmethoxy)-5-methylphenyl]-N-(trans-4-{[(2S)-2-hydroxypropanoyl]amino}cyclohexyl)-6-methyl-5H-pyrrolo[3,2-d]pyrimidine-7-carboxamide]
< 0.001	0.1 to 1	CCc1ccc(OCC2CC2)c(-c2ncnc3c(C(=O)NC4CCN(C(C)=O)CC4)c(C)[nH]c23)c1 [Example E145, N-(1-Acetylpiperidin-4-yl)-4-[2-(cyclopropylmethoxy)-5-ethylphenyl]-6-methyl-5H-pyrrolo[3,2-d]pyrimidine-7-carboxamide]
< 0.001	< 0.1	COCC(=O)N[C@H]1CC[C@H](NC(=O)c2c(C)[nH]c3c(-c4cc(C(F)F)ccc4OCC4CC4)ncnc23)C[C@H]1F (relative stereo) [Example P201, 4-[2-(Cyclopropylmethoxy)-5-(difluoromethyl)phenyl]-N-{(1S*,3R*,4S*)-3-fluoro-4-[(methoxyacetyl)amino]cyclohexyl}-6-methyl-5H-pyrrolo[3,2-d]pyrimidine-7-carboxamide]
< 0.001	< 0.1	CC(=O)N[C@H]1CC[C@H](NC(=O)c2c(C)[nH]c3c(-c4cc(C(F)F)ccc4OCC4CC4)ncnc23)C[C@H]1F (relative stereo) [Example P199, N-[(1S*,3R*,4S*)-4-(Acetylamino)-3-fluorocyclohexyl]-4-[2-(cyclopropylmethoxy)-5-(difluoromethyl)phenyl]-6-methyl-5H-pyrrolo[3,2-d]pyrimidine-7-carboxamide]
< 0.001	< 0.1	CCC(=O)N[C@H]1CC[C@H](NC(=O)c2c(C)[nH]c3c(-c4cc(C(F)(F)F)ccc4OCC4CC4)ncnc23)CC1 [Example E94, 4-[2-(cyclopropylmethoxy)-5-(trifluoromethyl)phenyl]-6-methyl-N-[trans-4-(propanoylamino)cyclohexyl]-5H-pyrrolo[3,2-d]pyrimidine-7-carboxamide]
